Data as given in ChEMBL document CHEMBL3112480, “γ-Alkylidene-γ-lactones and isobutylpyrrol-2(5H)-ones analogues to rubrolides as inhibitors of biofilm formation by gram-positive and gram-negative bacteria” (Bioorg Med Chem Lett, 2014).
Values after ≈ are worked out from the molar mass of the structure shown.

How the values were obtained:
Streptococcus mutans [1] = test: Antibacterial activity against Streptococcus mutans ATCC 25175 assessed as effect on planktonic growth at 5.5 ug/ml after 20 hrs relative to control; format: functional
Pseudomonas aeruginosa [2] = test: Antibacterial activity against Pseudomonas aeruginosa ATCC 27853 assessed as inhibition of biofilm formation after 20 hrs by crystal-violet staining method; format: functional, organism-based
Pseudomonas aeruginosa [3] = test: Antibacterial activity against Pseudomonas aeruginosa ATCC 27853 assessed as effect on planktonic growth at 1.37 ug/ml after 20 hrs relative to control; format: functional
Pseudomonas aeruginosa [4] = test: Antibacterial activity against Pseudomonas aeruginosa ATCC 27853 assessed as effect on planktonic growth at 0.68 ug/ml after 20 hrs relative to control; format: functional
Staphylococcus aureus [5] = test: Antibacterial activity against Staphylococcus aureus ATCC 25923 assessed as effect on planktonic growth at 0.17 ug/ml after 20 hrs relative to control; format: functional
Pseudomonas aeruginosa [6] = test: Antibacterial activity against Pseudomonas aeruginosa ATCC 27853 assessed as effect on planktonic growth at 21.9 ug/ml after 20 hrs relative to control; format: functional
Streptococcus mutans [7] = test: Antibacterial activity against Streptococcus mutans ATCC 25175 assessed as effect on planktonic growth at 2.73 ug/ml after 20 hrs relative to control; format: functional
Staphylococcus aureus [8] = test: Induction of biofilm formation in Staphylococcus aureus ATCC 25923 at 44 ug/ml after 20 hrs by crystal-violet staining method relative to control; format: organism-based
Streptococcus mutans [9] = test: Antibacterial activity against Streptococcus mutans ATCC 25175 assessed as effect on planktonic growth at 10.9 ug/ml after 20 hrs relative to control; format: functional
Pseudomonas aeruginosa [10] = test: Antibacterial activity against Pseudomonas aeruginosa ATCC 27853 assessed as effect on planktonic growth at 87.5 ug/ml after 20 hrs relative to control; format: functional
Staphylococcus aureus [11] = test: Antibacterial activity against Staphylococcus aureus ATCC 25923 assessed as effect on planktonic growth at 87.5 ug/ml after 20 hrs relative to control; format: functional
[12] = tested on: Staphylococcus epidermidis; test: Antibacterial activity against Staphylococcus epidermidis ATCC 35547 assessed as effect on planktonic growth at 1.37 ug/ml after 20 hrs relative to control; format: functional
[13] = tested on: Staphylococcus epidermidis; test: Antibacterial activity against Staphylococcus epidermidis ATCC 35547 assessed as effect on planktonic growth at 10.9 ug/ml after 20 hrs relative to control; format: functional
Streptococcus mutans [14] = test: Antibacterial activity against Streptococcus mutans ATCC 25175 assessed as effect on planktonic growth at 43.8 ug/ml after 20 hrs relative to control; format: functional
Pseudomonas aeruginosa [15] = test: Antibacterial activity against Pseudomonas aeruginosa ATCC 27853 assessed as effect on planktonic growth at 0.34 ug/ml after 20 hrs relative to control; format: functional
Streptococcus mutans [16] = test: Antibacterial activity against Streptococcus mutans ATCC 25175 assessed as effect on planktonic growth at 0.34 ug/ml after 20 hrs relative to control; format: functional
[17] = tested on: Staphylococcus epidermidis; test: Antibacterial activity against Staphylococcus epidermidis ATCC 35547 assessed as effect on planktonic growth at 2.73 ug/ml after 20 hrs relative to control; format: functional
Streptococcus mutans [18] = test: Antibacterial activity against Streptococcus mutans ATCC 25175 assessed as effect on planktonic growth at 0.17 ug/ml after 20 hrs relative to control; format: functional
Pseudomonas aeruginosa [19] = test: Antibacterial activity against Pseudomonas aeruginosa ATCC 27853 assessed as effect on planktonic growth at 5.5 ug/ml after 20 hrs relative to control; format: functional
Staphylococcus aureus [20] = test: Antibacterial activity against Staphylococcus aureus ATCC 25923 assessed as effect on planktonic growth at 0.34 ug/ml after 20 hrs relative to control; format: functional
[21] = tested on: Staphylococcus epidermidis; test: Antibacterial activity against Staphylococcus epidermidis ATCC 35547 assessed as effect on planktonic growth at 21.9 ug/ml after 20 hrs relative to control; format: functional
Staphylococcus aureus [22] = test: Antibacterial activity against Staphylococcus aureus ATCC 25923 assessed as effect on planktonic growth at 21.9 ug/ml after 20 hrs relative to control; format: functional
[23] = tested on: Staphylococcus epidermidis; test: Antibacterial activity against Staphylococcus epidermidis ATCC 35547 assessed as effect on planktonic growth at 0.68 ug/ml after 20 hrs relative to control; format: functional
[24] = tested on: Staphylococcus epidermidis; test: Antibacterial activity against Staphylococcus epidermidis ATCC 35547 assessed as effect on planktonic growth at 43.8 ug/ml after 20 hrs relative to control; format: functional
Pseudomonas aeruginosa [25] = test: Antibacterial activity against Pseudomonas aeruginosa ATCC 27853 assessed as effect on planktonic growth at 43.8 ug/ml after 20 hrs relative to control; format: functional
Streptococcus mutans [26] = test: Antibacterial activity against Streptococcus mutans ATCC 25175 assessed as effect on planktonic growth at 1.37 ug/ml after 20 hrs relative to control; format: functional
[27] = tested on: Staphylococcus epidermidis; test: Antibacterial activity against Staphylococcus epidermidis ATCC 35547 assessed as effect on planktonic growth at 5.5 ug/ml after 20 hrs relative to control; format: functional
[28] = tested on: Staphylococcus epidermidis; test: Antibacterial activity against Staphylococcus epidermidis ATCC 35547 assessed as effect on planktonic growth at 0.17 ug/ml after 20 hrs relative to control; format: functional
Streptococcus mutans [29] = test: Antibacterial activity against Streptococcus mutans ATCC 25175 assessed as effect on planktonic growth at 21.9 ug/ml after 20 hrs relative to control; format: functional
Staphylococcus aureus [30] = test: Antibacterial activity against Staphylococcus aureus ATCC 25923 assessed as effect on planktonic growth at 0.68 ug/ml after 20 hrs relative to control; format: functional
Staphylococcus aureus [31] = test: Antibacterial activity against Staphylococcus aureus ATCC 25923 assessed as effect on planktonic growth at 10.9 ug/ml after 20 hrs relative to control; format: functional
Streptococcus mutans [32] = test: Antibacterial activity against Streptococcus mutans ATCC 25175 assessed as effect on planktonic growth at 87.5 ug/ml after 20 hrs relative to control; format: functional
Staphylococcus aureus [33] = test: Antibacterial activity against Staphylococcus aureus ATCC 25923 assessed as effect on planktonic growth at 5.5 ug/ml after 20 hrs relative to control; format: functional
Staphylococcus aureus [34] = test: Antibacterial activity against Staphylococcus aureus ATCC 25923 assessed as effect on planktonic growth at 2.73 ug/ml after 20 hrs relative to control; format: functional
Staphylococcus aureus [35] = test: Antibacterial activity against Staphylococcus aureus ATCC 25923 assessed as effect on planktonic growth at 43.8 ug/ml after 20 hrs relative to control; format: functional
Pseudomonas aeruginosa [36] = test: Antibacterial activity against Pseudomonas aeruginosa ATCC 27853 assessed as effect on planktonic growth at 10.9 ug/ml after 20 hrs relative to control; format: functional
[37] = tested on: Staphylococcus epidermidis; test: Antibacterial activity against Staphylococcus epidermidis ATCC 35547 assessed as effect on planktonic growth at 87.5 ug/ml after 20 hrs relative to control; format: functional
[38] = tested on: Staphylococcus epidermidis; test: Antibacterial activity against Staphylococcus epidermidis ATCC 35547 assessed as effect on planktonic growth at 0.34 ug/ml after 20 hrs relative to control; format: functional
Streptococcus mutans [39] = test: Antibacterial activity against Streptococcus mutans ATCC 25175 assessed as effect on planktonic growth at 0.68 ug/ml after 20 hrs relative to control; format: functional
[40] = tested on: Staphylococcus epidermidis; test: Antibacterial activity against Staphylococcus epidermidis ATCC 35547 assessed as inhibition of biofilm formation after 20 hrs by crystal-violet staining method; format: functional, organism-based
Pseudomonas aeruginosa [41] = test: Antibacterial activity against Pseudomonas aeruginosa ATCC 27853 assessed as effect on planktonic growth at 0.17 ug/ml after 20 hrs relative to control; format: functional
Staphylococcus aureus [42] = test: Antibacterial activity against Staphylococcus aureus ATCC 25923 assessed as effect on planktonic growth at 1.37 ug/ml after 20 hrs relative to control; format: functional
Pseudomonas aeruginosa [43] = test: Antibacterial activity against Pseudomonas aeruginosa ATCC 27853 assessed as effect on planktonic growth at 2.73 ug/ml after 20 hrs relative to control; format: functional

Q: What does the source list for `COc1ccc(C)cc1C1=C(Br)C(=O)N(CC(C)C)/C1=C\c1ccccc1Cl`?
A: Activity (Streptococcus mutans [1]): 8.9%; inhibition (Pseudomonas aeruginosa [2]): Dose-dependent effect; IC50 (Pseudomonas aeruginosa [2]; ATCC 27853, 20 h): 5.7 mg/L (≈ 12.4 µM); Activity (Pseudomonas aeruginosa [3]): -10.6%; Activity (Pseudomonas aeruginosa [4]): -7.7%; Activity (Staphylococcus aureus [5]): -4.2%; Activity (Pseudomonas aeruginosa [6]): -13.3%; Activity (Streptococcus mutans [7]): 3.9%; Activity (Staphylococcus aureus [8]): 3.6%; Activity (Streptococcus mutans [9]): 7.8%; Activity (Pseudomonas aeruginosa [10]): 0.8%; Activity (Staphylococcus aureus [11]): 33.8%; Activity [12]: -4.4%; Activity [13]: 13.1%; Activity (Streptococcus mutans [14]): 19.2%; Activity (Pseudomonas aeruginosa [15]): -5.5%; Activity (Streptococcus mutans [16]): -1.4%; Activity [17]: -5.5%; Activity (Streptococcus mutans [18]): -4.6%; Activity (Pseudomonas aeruginosa [19]): -13.8%; Activity (Staphylococcus aureus [20]): -3.3%; Activity [21]: 31.7%; Activity (Staphylococcus aureus [22]): -6.3%; Activity [23]: 3.4%; Activity [24]: 46.4%; Activity (Pseudomonas aeruginosa [25]): -11.1%; Activity (Streptococcus mutans [26]): -0.4%; Activity [27]: 3.3%; Activity [28]: 4%; Activity (Streptococcus mutans [29]): 14.6%; Activity (Staphylococcus aureus [30]): -4.9%; Activity (Staphylococcus aureus [31]): -13.4%; Activity (Streptococcus mutans [32]): 49.5%; Activity (Staphylococcus aureus [33]): -12%; Activity (Staphylococcus aureus [34]): -6.6%; Activity (Staphylococcus aureus [35]): 8.9%; Activity (Pseudomonas aeruginosa [36]): -13.8%; Activity [37]: 65.8%; Activity [38]: 17.8%; Activity (Streptococcus mutans [39]): -2.1%; inhibition [40]: Dose-dependent effect; IC50 ([40]; ATCC 35547, 20 h): > 87.5 mg/L; Activity (Pseudomonas aeruginosa [41]): -1.9%; Activity (Staphylococcus aureus [42]): -13.4%; Activity (Pseudomonas aeruginosa [43]): -6%
